These results are taken from patent US20220024872A1, “ISOLATION AND CHARACTERIZATION OF ANTICANCER COMPOUND FROM SESUVIUM PORTULACASTRUM (L.) L” (priority 2019, published 2022).

Data set [1] has as its system human colon cancer cells (HCT-116). Description: MTT cell proliferation assay, HCT-116. The format is cell-based. On the procedure:
(§1) Anticancer activity of crude extracts were evaluated against four cell lines, human triple negative breast cancer cells (MDA-MB-231), estrogen positive breast cancer cells (MCF-7), human neuroblastoma cells (IMR-32) and human colon cancer cells (HCT-116) that were procured from NCCS-Pune using 3-(4,5-Dimethylthiazol-2-Yl)-2,5-Diphenyltetrazolium Bromide (MTT) assay.
(§2) In vitro cytotoxic activity of all the extracts was determined by MTT assay as described by Manikandan et al. (2017) with slight modification. After trypsinization, viable cells were counted by trypan blue exclusion in a hemocytometer and diluted with the medium.
(§3) The cells were seeded in 96 well plate at a density of 1-2×10^4 cells per well. The plate was incubated at 37° C. in a 5% CO2 atmosphere. The following day media was removed and the cells were treated with standard, doxorubicin (0.1-4 μg/ml) or plant extract at different concentrations (100-500 μg/ml). The extract was initially dissolved in 1:1 ratio of ethanol-ethyl acetate mixture and further diluted in medium to get the required concentrations. As plant extracts were dissolved in ethyl acetate and as ethyl acetate is not miscible with cell culture media, a mixture of ethanol-ethyl acetate in a ratio of 1:1 is used for all the cell culture experiments. The final mixture used for treating the cells contained not more than 0.5% of the ethanol-ethyl acetate mixture. Negative controls were treated with the same percentage of ethanol-ethyl acetate mixture.
(§4) The treated plate was incubated at 37° C. in a humidified incubator with 5% CO2 for 24 h. After the incubation period, the media was removed, 100 μl of 0.1 mg/ml MTT reagent was added and incubated at 37° C. in a humidified incubator with 5% CO2 for 1 h till purple MTT formazan crystals were visible under the microscope. The formazan crystals were dissolved by adding 100 μl DMSO and spectrophotometric readings were taken at 540 nm.
(§5) The cytotoxic activity of standard or plant extract was calculated as the percentage of cell growth inhibition by using the following formula.
(§6) Where Acontrol indicates the absorbance of control containing 0.5% ethanol-ethyl acetate mixture. Asample is the absorbance of treated cells at different concentrations. IC50 values (the concentration of sample required for inhibition of 50% of cell growth) were obtained from the regression line.
(§7) The anticancer potential of the anticancer compound against MDA-MB-231, MCF-7, IMR-32 and HCT-116 cells was evaluated at different concentrations (40, 80, 120, 160 and 200 μg/ml) and different incubation times (24 h, 48 h, 72 h) using MTT assay by the method described above.
Background: Tetrazolium dyes change colour on reduction, which living cells bring about.

The subject of data set [2] is human neuroblastoma cells (IMR-32). Put plainly: MTT cell proliferation assay, IMR-32. The format is cell-based. On the procedure:
as §1, §2, §3, §4, §5, §6, §7

Data set [3] relates to estrogen positive breast cancer cells (MCF-7). Put plainly: MTT cell proliferation assay, MCF-7. The format is cell-based. The conditions noted are these: Homo sapiens. The method, then:
as §1, §2, §3, §4, §5, §6, §7

Data set [4] has as its system human triple negative breast cancer cells (MDA-MB-231). Put plainly: MTT cell proliferation assay, MDA-MB-231. The format is cell-based. On the procedure: as §1, §2, §3, §4, §5, §6
Further, the most polar band from all the fractions was combined and termed as fraction 29. All the compounds separated along with crude diethyl ether extract were analyzed for their anticancer potential against MDA-MB-231 cells at a concentration of 300 μg/ml using MTT assay as described above. Cytotoxic activity was expressed as percentage inhibition of cells at 300 μg/ml.
as §7

A further data set concerns lymphocytes. The conditions noted are these: 1 μg/ml, 24 h; cited from earlier work.
Data set [5] concerns IMR-32 cells. Put plainly: Gene expression by PCR relative to β-actin, IMR-32. The format is cell-based, human. The conditions noted are these: IMR-32, 87 μg/ml, 72 h. On the procedure: (§8) FIG. 7. Detection of genes by PCR. Lane 1: MDA-MB-231 control cells; lane 2: MDA-MB-231 cells treated with anticancer compound (96 μg/ml) for 72 h; lane 3: IMR-32 control cells; lane 4: IMR-32 cells treated with anticancer compound (87 μg/ml) for 72 h; control cells are treated with 0.2% of ethanol-ethyl acetate mixture at 1:1 ratio.
(§9) Genetic level changes associated with the treatment of anticancer compound in MDA-MB-231 and IMR-32 cells were studied by isolating the RNA, reverse transcribing the RNA to cDNA, amplifying the genes using specific primers. The resulting bands were analyzed using image J and the expression of each gene was represented as relative gene expression using the β-actin gene as a control.

The subject of the next data set is MDA-MB-231 cells. Put plainly: Gene expression by PCR relative to β-actin, MDA-MB-231. It counts as cell-based, human. The conditions noted are these: MDA-MB-231, 96 μg/ml, 72 h. The method, then: as §8, §9
Data set [6] deals with human peripheral blood lymphocytes. Put plainly: Trypan blue exclusion assay, lymphocyte viability. It counts as cell-based. On the procedure:
In order to know the side effects associated with the treatment of anticancer compound, the effect of the anticancer compound on the viability of human peripheral blood lymphocytes was determined using trypan blue exclusion assay. Along with the viability of lymphocytes, the viability of different cancer cells at that particular concentration and incubation time are shown in Table 6.

A further data set relates to MDA-MB-231. Description: Cell cycle progression, MDA-MB-231. The format is cell-based, human.
For data set [7], the system named is IMR-32 cells. Description: Cell cycle progression, IMR-32. It counts as cell-based, human.

SMILES strings stand for the structures. Values after ≈ are worked out from the molar mass of the structure shown. Values joined by “and” are separate entries in the source; they are usually repeats but may differ in a detail not shown here. Identical values can stand only once.

In general, IC50 refers to the point on the concentration scale where inhibition reaches its midpoint. Low readings indicate inhibition by little substance, high ones a need for much substance. As to `COc1cccc2c1C(=O)c1c(O)c3c(c(O)c1C2=O)C[C@@](O)(C(=O)CO)C[C@@H]3O[C@H]1C[C@H](N)[C@H](O)[C@H](C)O1` [Doxorubicin, doxorubicin, reference compound], the IC50 in data set [1] (HCT-116, crude extracts 100-500 μg/ml, doxorubicin 0.1-4 μg/ml, 24 h) was 0.4 µg/mL (≈ 0.736 µM); in data set [2] (IMR-32, crude extracts 100-500 μg/ml, doxorubicin 0.1-4 μg/ml, 24 h) it was 0.5 µg/mL (≈ 0.92 µM); in [3] (MCF7, crude extracts 100-500 μg/ml, doxorubicin 0.1-4 μg/ml, 24 h), 0.66 ± 0.04 µg/mL (≈ 1.21 µM); in [4] (MDA-MB-231, crude extracts 100-500 μg/ml, doxorubicin 0.1-4 μg/ml, 24 h), 0.83 ± 0.03 µg/mL (≈ 1.53 µM). Besides, the lymphocyte viability in the data set on lymphocytes is on record as 65%.
Usually viability stands for a read-out of living cells in per cent, often relative to untreated cells. For orientation: inhibition means the share of the control response that was lost under treatment. For the molecule `Cc1cnc(-c2ccc(CCCCCCCC(C)C)cc2)c(C)c1C` [Compound 16, 3,4,5-trimethyl-2-(4-(8-methylnonyl)phenyl)pyridine], the viability at 300 µg/mL is 3.29 ± 3.15% in [1] (HCT-116, 300 μg/ml, 72 h, read-out: Viability percentage HCT-116); 0% in data set [2] (IMR-32, 300 μg/ml, 72 h, read-out: Viability percentage IMR-32); 0% in data set [3] (MCF7, 300 μg/ml, 72 h, read-out: Viability percentage MCF-7); 0% in data set [4] (MDA-MB-231, 300 μg/ml, 72 h, read-out: Viability percentage MDA-MB-231). Besides, the viability at 350 µg/mL in data set [1] (HCT-116, 350 μg/ml, 48 h, read-out: Viability percentage HCT-116) was 0%; in [2] (IMR-32, 350 μg/ml, 48 h, read-out: Viability percentage IMR-32), 0%; in data set [3] (MCF7, 350 μg/ml, 48 h, read-out: Viability percentage MCF-7) it was 0%; in [4] (MDA-MB-231, 350 μg/ml, 48 h, read-out: Viability percentage MDA-MB-231), 0%. The viability at 400 µg/mL was 0% in data set [1] (HCT-116, 400 μg/ml, 24 h, read-out: Viability percentage HCT-116); 0% in data set [2] (IMR-32, 400 μg/ml, 24 h, read-out: Viability percentage IMR-32); 0% in data set [3] (MCF7, 400 μg/ml, 24 h, read-out: Viability percentage MCF-7); 0% in [4] (MDA-MB-231, 400 μg/ml, 24 h, read-out: Viability percentage MDA-MB-231). In addition, the IC50 stood at 179 ± 6.12 µg/mL (≈ 531 µM) in data set [1] (HCT-116, 24 h); 162 ± 5.02 µg/mL (≈ 478 µM) in [1] (HCT-116, 48 h); 159 µg/mL (≈ 470 µM) in data set [1] (HCT-116, 72 h); 224 ± 7.21 µg/mL (≈ 663 µM) in [2] (IMR-32, 24 h); 165.2 ± 0.87 µg/mL (≈ 489 µM) in [2] (IMR-32, 48 h); 87.8 µg/mL (≈ 260 µM) in [2] (IMR-32, 72 h). For the same molecule, the IC50 stood at 243 µg/mL (≈ 719 µM) in data set [3] (MCF7, 24 h); 183 ± 6.29 µg/mL (≈ 543 µM) in data set [3] (MCF7, 48 h); 155 ± 5.24 µg/mL (≈ 458 µM) in [3] (MCF7, 72 h); 199.2 ± 0.5 µg/mL (≈ 590 µM) in [4] (MDA-MB-231, 24 h); 99.1 ± 1.6 µg/mL (≈ 294 µM) in [4] (MDA-MB-231, 48 h); 96.2 ± 1.75 µg/mL (≈ 285 µM) in data set [4] (MDA-MB-231, 72 h). For the same molecule, the “Bcl-2 gene expression vs control” value is “no change in the expression levels” with IMR-32 cells [5] and “reduced expression levels” in the data set with MDA-MB-231 cells. Moreover, the “IKK-β gene expression vs control” value with IMR-32 cells [5] is “downregulation”; in the data set with MDA-MB-231 cells it was “almost similar in treated and control cells”. In addition, the “Nrf2 gene expression vs control” value in the data set on IMR-32 cells [5] was “reduced expression level”; in the data set on MDA-MB-231 cells, “downregulation”. In addition, the “caspase-3 gene expression vs control” value with IMR-32 cells [5] and in the data set with MDA-MB-231 cells was “upregulation” in each case. Besides, the “p53 gene expression vs control” value in the data set on IMR-32 cells [5] and in the data set on MDA-MB-231 cells was “reduced” each time. The “Viability percentage Lymphocytes” value in data set [6] (300 μg/ml, 72 h, listed as anticancer compound) is 74.94% and 74.94 ± 1.50%; in [6] (350 μg/ml, 48 h), 82.11 ± 1.42%; in data set [6] (400 μg/ml, 24 h, listed as anticancer compound), 91.04% and 90.40 ± 4.02%. Besides, the results for the “phase at which cell cycle progression is inhibited” value with MDA-MB-231 and in the data set with IMR-32 cells [7] were “G2/M phase” and “G1 phase”, respectively. In addition, the inhibition at 300 µg/mL in [4] (MDA-MB-231 cells, 300 μg/ml, read-out: Percentage Inhibition) is 94.54 ± 0.59%.
